Source: the supplement of paper PMC10307832

Legend:
Assay in all cases: relative viability (nuclei count vs DMSO), 5 days (fraction); higher = more cells survive
GSK-J4 + Phenformin = compound: CCOC(=O)CCNc1cc(N2CCc3ccccc3CC2)nc(-c2ccccn2)n1 [GSK-J4] + N=C(N)NC(=N)NCCc1ccccc1 [Phenformin] (partner 250 µM)
How it was run: (§1)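 Relative viability is defined as nuclei in treated wells over nuclei in vehicle wells. Duplicate plates were run and medians reported. Lung cancer cell lines in 1536-well plates were dosed by pin tool one day after seeding, with one drug or with a fixed anchor-drug dose plus five library-drug doses (not always all listed) in √10 steps, and nuclei were counted after 5 days.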

AZ3146 + Luminespib = compound: CN1CCC(CC1)OC2=CC(=C(C=C2)NC3=NC=C4C(=N3)N(C(=O)N4C)C5CCCC5)OC [AZ3146] + CCNC(=O)c1noc(-c2cc(C(C)C)c(O)cc2O)c1-c1ccc(CN2CCOCC2)cc1 [Luminespib] (partner 0.01 µM)
How it was run: as §1

AZ3146 + Alpelisib = compound: CN1CCC(CC1)OC2=CC(=C(C=C2)NC3=NC=C4C(=N3)N(C(=O)N4C)C5CCCC5)OC [AZ3146] + Cc1nc(NC(=O)N2CCC[C@H]2C(N)=O)sc1-c1ccnc(C(C)(C)C(F)(F)F)c1 [Alpelisib] (partner 2 µM)
How it was run: as §1

GSK-J4 + Navitoclax = compound: CCOC(=O)CCNc1cc(N2CCc3ccccc3CC2)nc(-c2ccccn2)n1 [GSK-J4] + CC1(C)CCC(c2ccc(Cl)cc2)=C(CN2CCN(c3ccc(C(=O)NS(=O)(=O)c4ccc(N[C@H](CCN5CCOCC5)CSc5ccccc5)c(S(=O)(=O)C(F)(F)F)c4)cc3)CC2)C1 [Navitoclax] (partner 0.5 µM)
How it was run: as §1

Cell Line | relative viability (GSK-J4 + Phenformin; first compound 0.5 µM) | relative viability (GSK-J4 + Phenformin; first compound 5 µM) | relative viability (GSK-J4 + Phenformin; first compound 15.81 µM) | relative viability (GSK-J4 + Phenformin; first compound 50 µM) | relative viability (AZ3146 + Luminespib; first compound 0.08 µM) | relative viability (AZ3146 + Luminespib; first compound 0.253 µM) | relative viability (AZ3146 + Luminespib; first compound 0.8 µM) | relative viability (AZ3146 + Luminespib; first compound 2.53 µM) | relative viability (AZ3146 + Luminespib; first compound 8 µM) | relative viability (AZ3146 + Alpelisib; first compound 0.08 µM) | relative viability (AZ3146 + Alpelisib; first compound 0.253 µM) | relative viability (AZ3146 + Alpelisib; first compound 0.8 µM) | relative viability (AZ3146 + Alpelisib; first compound 2.53 µM) | relative viability (AZ3146 + Alpelisib; first compound 8 µM) | relative viability (GSK-J4 + Navitoclax; first compound 0.5 µM) | relative viability (GSK-J4 + Navitoclax; first compound 1.581 µM) | relative viability (GSK-J4 + Navitoclax; first compound 5 µM) | relative viability (GSK-J4 + Navitoclax; first compound 15.81 µM) | relative viability (GSK-J4 + Navitoclax; first compound 50 µM) | relative viability (GSK-J4 + Phenformin; first compound 1.581 µM)
NCI-H3122 | 0.37 | 0.305 | 0.289 | 0.264 | 0.12 | 0.113 | 0.108 | 0.111 | 0.0978 | 0.68 | 0.683 | 0.702 | 0.872 | 0.775 | 1.02 | 1 | 1.02 | 1.04 | 0.973 | –
PC-3 [JPC-3] | 0.481 | 0.521 | 0.5 | 0.488 | 0.617 | 0.741 | 0.676 | 0.695 | 0.715 | 0.914 | 1.01 | 1.02 | 1.08 | 1.07 | 0.77 | 0.742 | 0.787 | 0.743 | 0.753 | 0.48
PC-14 | 0.624 | 0.432 | 0.537 | 0.53 | 0.162 | 0.169 | – | 0.252 | 0.159 | 0.897 | 0.976 | 0.979 | 1.07 | 0.916 | 0.939 | 1.02 | 0.948 | 1.02 | 0.926 | 0.555
RERF-LC-KJ | 0.424 | 0.401 | 0.417 | 0.341 | 1.15 | 1.2 | 1.22 | 1.29 | 0.668 | 0.805 | 0.834 | 0.685 | 0.888 | 0.747 | 0.756 | 1.01 | 0.881 | 0.795 | 0.763 | 0.441
SK-LU-1 | 0.48 | 0.323 | 0.365 | 0.245 | 0.216 | 0.206 | 0.231 | 0.252 | 0.231 | 0.892 | 1.05 | 1.15 | 1.23 | 0.571 | 0.733 | 0.832 | 0.682 | 0.596 | 0.537 | 0.495
SK-MES-1 | 0.582 | 0.594 | 0.565 | 0.371 | 0.657 | 0.581 | 0.769 | 0.847 | 0.585 | 0.785 | 0.93 | 0.866 | 0.836 | 0.932 | 1.13 | 1.03 | 1.25 | 1.01 | 0.857 | 0.585
SW 1573 | 0.315 | 0.336 | 0.262 | 0.247 | 0.699 | 0.14 | 0.393 | 0.204 | 0.273 | 0.843 | 0.762 | 0.762 | 0.894 | 0.757 | 0.941 | 1.1 | 0.951 | 0.823 | 0.705 | 0.326
